The target in the test is T1, human NaPi-IIb (Homo sapiens, UniProt O95436).
T1 construct: expressed in transfected cells
T1 sequence (O95436 1-690): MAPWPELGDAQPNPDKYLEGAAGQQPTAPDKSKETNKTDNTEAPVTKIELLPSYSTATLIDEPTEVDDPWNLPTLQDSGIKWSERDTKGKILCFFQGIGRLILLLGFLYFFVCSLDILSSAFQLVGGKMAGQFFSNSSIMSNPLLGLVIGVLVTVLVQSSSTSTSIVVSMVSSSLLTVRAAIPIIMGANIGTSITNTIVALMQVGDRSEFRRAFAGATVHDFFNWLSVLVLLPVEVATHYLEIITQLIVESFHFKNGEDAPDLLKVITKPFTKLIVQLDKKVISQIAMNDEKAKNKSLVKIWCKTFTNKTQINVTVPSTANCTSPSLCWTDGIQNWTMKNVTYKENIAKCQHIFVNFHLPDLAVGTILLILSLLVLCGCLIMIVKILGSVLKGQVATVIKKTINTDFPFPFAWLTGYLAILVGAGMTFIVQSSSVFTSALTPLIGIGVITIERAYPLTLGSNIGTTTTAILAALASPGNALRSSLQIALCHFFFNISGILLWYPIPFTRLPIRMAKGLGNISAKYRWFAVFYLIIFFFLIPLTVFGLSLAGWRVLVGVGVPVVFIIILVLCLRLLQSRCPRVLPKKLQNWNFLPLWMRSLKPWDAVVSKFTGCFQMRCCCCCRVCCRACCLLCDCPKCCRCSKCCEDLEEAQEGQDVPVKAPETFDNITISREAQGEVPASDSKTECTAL
The test is described as follows: Inhibitory effect on 33PO4 uptake into human NaPi-IIb-expressing CHO cells. In kind it is cell-based. An outline of the steps: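 Uptake of ³³PO4 was measured by scintillation counting after ice-cold buffer A washes. Cells were CHO stably expressing human NaPi-IIb, seeded overnight, and exposed to ³³PO4 in buffer A at room temperature.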

Where [1] appears, read: read-out: IC50 against 33PO4 uptake into human NaPi-IIb-expressing cells.

Structures can show the parent of a compound that is named as a salt. Where two headings read alike, the source gives them in different places.

Consider `CN1N(Cc2ccc(OCCN3CCOCC3)c(F)c2F)C(=O)C(C(=O)Nc2ccc(C(F)(F)F)cc2-c2cc(C(F)(F)F)ncn2)=C(O)C12CCC2` [Example 317, 6-[[2,3-Difluoro-4-(2-morpholin-4-ylethoxy)phenyl]methyl]-9-hydroxy-5-methyl-7-oxo-N-[4-(trifluoromethyl)-2-[6-(trifluoromethyl)pyrimidin-4-yl]phenyl]-5,6-diazaspiro[3.5] non-8-ene-8-carboxamide], for which, where the note is “read-out: IC50”, the IC50 was 9.6 µM. `CN1N(Cc2ccc(OCCN3CCC(N4CCOCC4)CC3)c(F)c2F)C(=O)C(C(=O)Nc2ccc(C(F)(F)F)cc2-c2cc(C(F)(F)F)ncn2)=C(O)C12CCC2` [Example 358]: the IC50 under setting [1] was 9.2 µM. On to `CCN1[C@@H](C(C)(C)C)C(O)=C(C(=O)Nc2ccc(Cl)cc2-c2ccc(C(F)(F)F)nc2)C(=O)N1Cc1cccc(F)c1F` [Example 245], for which the concentration for half-maximal inhibition (IC50) (read-out: IC50) was found to be 7.7 µM. In the case of `C[C@]12CCCN1N(Cc1cccc(F)c1F)C(=O)C(C(=O)Nc1ccc(C(F)(F)F)cc1-c1ccc(C(F)(F)F)nc1Br)=C2O` [Example 85], under “read-out: IC50”, the half-inhibitory concentration (IC50) worked out at 6.2 µM. On the same count and under the same terms, as for `C[C@]12CCCN1N(Cc1cccc(F)c1Cl)C(=O)C(C(=O)Nc1ccc(C(F)(F)F)cc1-c1ccc(C(F)(F)F)nc1)=C2O` [Example 201], the figure is 1.3 µM; as for `C[C@]12CCCN1N(Cc1ccc(Br)cc1F)C(=O)C(C(=O)Nc1cc(F)c(Br)c(F)c1)=C2O` [Example 166, (4aR)—N-(4-Bromo-3,5-difluorophenyl)-1-[(4-bromo-2-fluorophenyl)methyl]-4-hydroxy-4a-methyl-2-oxo-6,7-dihydro-5H-pyrrolo[1,2-b]pyridazine-3-carboxamide], 10.5 µM; as for `Cc1cccc(CN2C(=O)C(C(=O)Nc3ccc(C(F)(F)F)cc3-c3cc(C(F)(F)F)ncn3)=C(O)[C@@]3(C)CCCN23)c1` [Example 186], 5.5 µM. For the compound `CN(CCOCCC(=O)N(C)C[C@H](O)[C@@H](O)[C@H](O)[C@H](O)CO)CCOc1ccc(CN2C(=O)C(C(=O)Nc3ccc(C(F)(F)F)cc3-c3cc(C(F)(F)F)ncn3)=C(O)C3(CCCC3)N2C)c(F)c1F` [Example 425], the IC50 under setting [1] came to 28.1 µM. Consider `COc1cccc(CN2C(=O)C(C(=O)Nc3ccc(C(F)(F)F)cc3-c3ccc(C(F)(F)F)nc3)=C(O)[C@@]3(C)CCCN23)c1OC` [Example 175], for which the IC50 (read-out: IC50) is 3.4 µM.

In the case of `C[C@]12CCCN1N(Cc1c(F)cc(C#CC3(O)CCCC3)cc1F)C(=O)C(C(=O)Nc1ccc(C(F)(F)F)cc1-c1ccc(C(F)(F)F)nc1)=C2O` [Example 130], the IC50 (read-out: IC50) was 8.9 µM.

Regarding `COCCN1CC(Oc2ccc(CN3C(=O)C(C(=O)Nc4ccc(C(F)(F)F)cc4-c4cc(C(F)(F)F)ncn4)=C(O)C4(CCC4)N3C)c(F)c2F)C1` [Example 406, 6-[[2,3-Difluoro-4-[1-(2-methoxyethyl)azetidin-3-yl]oxyphenyl]methyl]-9-hydroxy-5-methyl-7-oxo-N-[4-(trifluoromethyl)-2-[6-(trifluoromethyl)pyrimidin-4-yl]phenyl]-5,6-diazaspiro[3.5]non-8-ene-8-carboxamide], the IC50 under setting [1] was 23.1 µM. Regarding `CC1(C)CC[C@]2(C)C(O)=C(C(=O)Nc3cc(C(F)(F)F)ccc3-c3ccc(C(F)(F)F)nc3)C(=O)N(Cc3cccc(F)c3F)N12` [Example 63], the IC50 (read-out: IC50) is 8.7 µM.

On to `C[C@]12CCCN1N(Cc1ccccc1C#N)C(=O)C(C(=O)Nc1ccc(C(F)(F)F)cc1-c1cc(C(F)(F)F)ncn1)=C2O` [Example 178], for which the 50% inhibitory concentration (IC50) (read-out: IC50) is 8.2 µM. Consider `CN1N(Cc2ccc(OCCCOC[C@H](O)CO)c(F)c2F)C(=O)C(C(=O)Nc2ccc(C(F)(F)F)cc2-c2ccc(C(F)(F)F)nc2)=C(O)C12CCCC2` [Example 386], for which, under setting [1], the IC50 is 18.9 µM.

Regarding `COc1cccc(-c2cc(C(F)(F)F)ccc2NC(=O)C2=C(O)[C@@]3(C)CCCN3N(Cc3ccc(OC4CCOCC4)c(F)c3F)C2=O)c1OC` [Example 158], where the note is “read-out: IC50”, the IC50 was 12.8 µM. Turning to `C[C@]12CCCN1N(Cc1ccc(SCCN3CCOCC3)c(F)c1F)C(=O)C(C(=O)Nc1ccc(C(F)(F)F)cc1-c1ccc(C(F)(F)F)nc1)=C2O` [Example 163, (4aR)-1-[[2,3-Difluoro-4-(2-morpholin-4-ylethylsulfanyl)phenyl]methyl]-4-hydroxy-4a-methyl-2-oxo-N-[4-(trifluoromethyl)-2-[6-(trifluoromethyl)pyridin-3-yl]phenyl]-6,7-dihydro-5H-pyrrolo[1,2-b]pyridazine-3-carboxamide hydrochloride], the IC50 (read-out: IC50) came to 6.8 µM.

On to `C#Cc1ccc(CN2C(=O)C(C(=O)Nc3ccc(C(F)(F)F)cc3-c3cc(C(F)(F)F)ncn3)=C(O)[C@@]3(C)CCCN23)c(F)c1F` [Example 126, (4aR)-1-[(4-Ethynyl-2,3-difluorophenyl)methyl]-4-hydroxy-4a-methyl-2-oxo-N-[4-(trifluoromethyl)-2-[6-(trifluoromethyl)pyrimidin-4-yl]phenyl]-6,7-dihydro-5H-pyrrolo[1,2-b]pyridazine-3-carboxamide], for which, for the setting “read-out: IC50”, the half-inhibitory concentration (IC50) stood at 5.5 µM. `COC[C@@H]1CCCN1CCOc1ccc(CN2C(=O)C(C(=O)Nc3ccc(C(F)(F)F)cc3-c3cc(C(F)(F)F)ncn3)=C(O)C3(CCCC3)N2C)c(F)c1F` [Example 375]: the IC50 under setting [1] turned out to be 17.8 µM.

Turning to `COCCN(C)CCOCCOc1ccc(CN2C(=O)C(C(=O)Nc3ccc(C(F)(F)F)cc3-c3cc(C(F)(F)F)ncn3)=C(O)C3(CCCC3)N2C)c(F)c1F` [Example 429, 7-[[2,3-Difluoro-4-[2-[2-[2-methoxyethyl(methyl)amino]ethoxy]ethoxy]phenyl]methyl]-10-hydroxy-6-methyl-8-oxo-N-[4-(trifluoromethyl)-2-[6-(trifluoromethyl)pyrimidin-4-yl]phenyl]-6,7-diazaspiro[4.5]dec-9-ene-9-carboxamide], the IC50 under setting [1] was determined as 7.7 µM. In the case of `CC(=O)N(C)CCN(C)CCOc1ccc(CN2C(=O)C(C(=O)Nc3ccc(C(F)(F)F)cc3-c3cc(C(F)(F)F)ncn3)=C(O)C3(CCC3)N2C)c(F)c1F` [Example 354], under setting [1], the IC50 amounted to 26 µM. For the compound `C[C@]12CCCN1N(Cc1cccc([N+](=O)[O-])c1)C(=O)C(C(=O)Nc1ccc(Br)c(F)c1)=C2O` [Example 27], the IC50 (read-out: IC50) is 9 µM. Turning to `CC(C)[C@@H]1C(O)=C(C(=O)Nc2ccc(Cl)cc2-c2cc(C(F)(F)F)ncn2)C(=O)N(Cc2cccc(F)c2F)N1C` [Example 250], the IC50 (read-out: IC50) amounted to 17.9 µM. For `CN1[C@@H](C(C)(C)C)C(O)=C(C(=O)Nc2ccc(Cl)cc2-c2cc(C(F)(F)F)ncn2)C(=O)N1Cc1ccc(OCCN2CCOCC2)c(F)c1F` [Example 265, (3S)-3-tert-Butyl-N-[4-chloro-2-[6-(trifluoromethyl)pyrimidin-4-yl]phenyl]-1-[[2,3-difluoro-4-(2-morpholin-4-ylethoxy)phenyl]methyl]-4-hydroxy-2-methyl-6-oxo-3H-pyridazine-5-carboxamide], the IC50 (read-out: IC50) stood at 13.3 µM.

Consider `COCCN(C)CCOc1c(I)cc(CN2C(=O)C(C(=O)Nc3ccc(C(F)(F)F)cc3-c3cc(C(F)(F)F)ncn3)=C(O)C3(CCCC3)N2C)c(F)c1F` [Example 437, 7-[[2,3-Difluoro-5-iodo-4-[2-[2-methoxyethyl(methyl)amino]ethoxy]phenyl]methyl]-10-hydroxy-6-methyl-8-oxo-N-[4-(trifluoromethyl)-2-[6-(trifluoromethyl)pyrimidin-4-yl]phenyl]-6,7-diazaspiro[4.5]dec-9-ene-9-carboxamide], for which, under setting [1], the 50% inhibitory concentration (IC50) is 19.5 µM.

For the compound `C[C@]12CCCN1N(Cc1c(F)cc(C#CCCCCCOC[C@H](O)[C@@H](O)CO)cc1F)C(=O)C(C(=O)Nc1ccc(C(F)(F)F)cc1-c1ccc(C(F)(F)F)nc1)=C2O` [Example 124, (4aR)-1-[[2,6-Difluoro-4-[7-[(2S,3S)-2,3,4-trihydroxybutoxy]hept-1-ynil]phenyl]methyl]-4-hydroxy-4a-methyl-2-oxo-N-[4-(trifluoromethyl)-2-[6-(trifluoromethyl)pyridin-3-yl]phenyl]-6,7-dihydro-5H-pyrrolo[1,2-b]pyridazine-3-carboxamide], the IC50 (read-out: IC50) was 2.5 µM. As for `CN(CCOc1ccc(CN2C(=O)C(C(=O)Nc3ccc(C(F)(F)F)cc3-c3cc(C(F)(F)F)ncn3)=C(O)C3(CCC3)N2C)c(F)c1F)C1COC1` [Example 402, 6-(2,3-Difluoro-4-(2-(methyl(oxetan-3-yl)amino)ethoxy)benzyl)-9-hydroxy-5-methyl-7-oxo-N-(4-(trifluoromethyl)-2-(6-(trifluoromethyl)pyrimidin-4-yl)phenyl)-5,6-diazaspiro[3.5]non-8-ene-8-carboxamide], the IC50 under setting [1] worked out at 12.8 µM. Turning to `C[C@]12CCCN1N(Cc1c(F)cc(C#CCN3CCOCC3)cc1F)C(=O)C(C(=O)Nc1ccc(C(F)(F)F)cc1-c1ccc(C(F)(F)F)nc1)=C2O` [Example 132], under “read-out: IC50”, the IC50 was found to be 5 µM. Still for that read-out and setting: as for `C[C@]12CCCN1N(Cc1ccc(Cl)cc1)C(=O)C(C(=O)Nc1cc(F)c(Br)c(F)c1)=C2O` [Example 223], the figure is 17.9 µM.

One may read the IC50 as the concentration that inhibits the measured activity by half.

The record behind these values is patent publication US9499553B2 (CHUGAI SEIYAKU KABUSHIKI KAISHA, priority 2013, dated 2016).
